Results from PubChem BioAssay AID1963986 (Molecular Pharmacology Branch, DTP, NCI, 2024).

Tested on: 171881-019-R-J1-PDC tumor spheroid viability
Test: Anticancer human tumor 171881-019-R-J1-PDC patient-derived invasive breast carcinoma cell line growth inhibition [PI3K]
Settings: spheroids with HUVEC and MSC; for IC50: curve of first compound; for viability, T/C: stronger effect = lower value
How it was run: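 We assembled tumor spheroids that included a stromal compartment of HUVEC and MSCs, then exposed them to targeted agents alone and together with PI3K pathway inhibitors. Concentration series descended by half-log from clinically achievable Cmax levels. Viability served as the endpoint.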

[1] = second compound 0.00316 µM, first compound 0.0316 µM
[2] = second compound 0.00316 µM, first compound 0.1 µM
[3] = second compound 0.00316 µM, first compound 0.316 µM
[4] = second compound 0.00316 µM, first compound 1 µM
[5] = second compound 0.00316 µM, first compound 3.16 µM
[6] = second compound 0.00316 µM, first compound 10 µM
[7] = second compound 0.01 µM, first compound 0.0316 µM
[8] = second compound 0.01 µM, first compound 0.1 µM
[9] = second compound 0.01 µM, first compound 0.316 µM
[10] = second compound 0.01 µM, first compound 1 µM
[11] = second compound 0.01 µM, first compound 3.16 µM
[12] = second compound 0.01 µM, first compound 10 µM
[13] = second compound 0.0316 µM, first compound 0.0316 µM
[14] = second compound 0.0316 µM, first compound 0.1 µM
[15] = second compound 0.0316 µM, first compound 0.316 µM
[16] = second compound 0.0316 µM, first compound 1 µM
[17] = second compound 0.0316 µM, first compound 3.16 µM
[18] = second compound 0.0316 µM, first compound 10 µM
[19] = second compound 0.1 µM, first compound 0.0316 µM
[20] = second compound 0.1 µM, first compound 0.1 µM
[21] = second compound 0.1 µM, first compound 0.316 µM
[22] = second compound 0.1 µM, first compound 1 µM
[23] = second compound 0.1 µM, first compound 3.16 µM
[24] = second compound 0.1 µM, first compound 10 µM
[25] = second compound 0.316 µM, first compound 0.0316 µM
[26] = second compound 0.316 µM, first compound 0.1 µM
[27] = second compound 0.316 µM, first compound 0.316 µM
[28] = second compound 0.316 µM, first compound 1 µM
[29] = second compound 0.316 µM, first compound 3.16 µM
[30] = second compound 0.316 µM, first compound 10 µM
[31] = second compound 1 µM, first compound 0.0316 µM
[32] = second compound 1 µM, first compound 0.1 µM
[33] = second compound 1 µM, first compound 0.316 µM
[34] = second compound 1 µM, first compound 1 µM
[35] = second compound 1 µM, first compound 3.16 µM
[36] = second compound 1 µM, first compound 10 µM
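Note: spheroids exposed to compound for 7 days before viability read.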
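Throughout, for viability, T/C: 100% = DMSO vehicle-treated spheroids.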

## C#Cc1c(F)ccc2cc(O)cc(-c3ncc4c(N5CC6CCC(C5)N6)nc(OCC56CCCN5CC(F)C6)nc4c3F)c12 (stereo not drawn) + CC(Nc1ccc2c(c1)OCCn1cc(N3C(=O)OCC3C(F)F)nc1-2)C(N)=O
Second compound 0.00316 µM
  IC50: 187 nM
Second compound 0.01 µM
  IC50: 99.6 nM
Second compound 0.0316 µM
  IC50: < 31.6 nM
Second compound 0.1 µM
  IC50: < 31.6 nM
Second compound 0.316 µM
  IC50: < 31.6 nM
Second compound 1 µM
  IC50: < 31.6 nM
[1]
  viability, T/C: 72.4%
[2]
  viability, T/C: 57.1%
[3]
  viability, T/C: 44.4%
[4]
  viability, T/C: 32.8%
[5]
  viability, T/C: 28.8%
[6]
  viability, T/C: 22%
[7]
  viability, T/C: 65%
[8]
  viability, T/C: 51.7%
[9]
  viability, T/C: 32%
[10]
  viability, T/C: 27.5%
[11]
  viability, T/C: 22.2%
[12]
  viability, T/C: 17.1%
[13]
  viability, T/C: 42.7%
[14]
  viability, T/C: 37.2%
[15]
  viability, T/C: 26.4%
[16]
  viability, T/C: 18.3%
[17]
  viability, T/C: 14.9%
[18]
  viability, T/C: 12.7%
[19]
  viability, T/C: 31.1%
[20]
  viability, T/C: 23.6%
[21]
  viability, T/C: 15.6%
[22]
  viability, T/C: 11.9%
[23]
  viability, T/C: 9.09%
[24]
  viability, T/C: 8.33%
[25]
  viability, T/C: 21.1%
[26]
  viability, T/C: 15.7%
[27]
  viability, T/C: 10.4%
[28]
  viability, T/C: 7.74%
[29]
  viability, T/C: 6.88%
[30]
  viability, T/C: 6.22%
[31]
  viability, T/C: 17.2%
[32]
  viability, T/C: 12.3%
[33]
  viability, T/C: 7.9%
[34]
  viability, T/C: 7.17%
[35]
  viability, T/C: 5.55%
[36]
  viability, T/C: 4.36%

## C=CC(=O)N1CCN(c2nc(=O)n(-c3c(C)ccnc3C(C)C)c3nc(-c4c(O)cccc4F)c(F)cc23)C(C)C1 (stereo not drawn) + CC(Nc1ccc2c(c1)OCCn1cc(N3C(=O)OCC3C(F)F)nc1-2)C(N)=O
Second compound 0.00316 µM
  IC50: 9110 nM
Second compound 0.01 µM
  IC50: 7320 nM
Second compound 0.0316 µM
  IC50: 3970 nM
Second compound 0.1 µM
  IC50: < 31.6 nM
Second compound 0.316 µM
  IC50: < 31.6 nM
Second compound 1 µM
  IC50: < 31.6 nM
[1]
  viability, T/C: 96.8%
[2]
  viability, T/C: 90.1%
[3]
  viability, T/C: 92.8%
[4]
  viability, T/C: 93.1%
[5]
  viability, T/C: 88.5%
[6]
  viability, T/C: 46.6%
[7]
  viability, T/C: 79.5%
[8]
  viability, T/C: 84.9%
[9]
  viability, T/C: 78.5%
[10]
  viability, T/C: 84.6%
[11]
  viability, T/C: 79%
[12]
  viability, T/C: 39.1%
[13]
  viability, T/C: 52.7%
[14]
  viability, T/C: 56.2%
[15]
  viability, T/C: 52.1%
[16]
  viability, T/C: 57.7%
[17]
  viability, T/C: 54.7%
[18]
  viability, T/C: 31.7%
[19]
  viability, T/C: 37.6%
[20]
  viability, T/C: 37.8%
[21]
  viability, T/C: 40.2%
[22]
  viability, T/C: 36.3%
[23]
  viability, T/C: 39.2%
[24]
  viability, T/C: 22.1%
[25]
  viability, T/C: 26.1%
[26]
  viability, T/C: 29.2%
[27]
  viability, T/C: 27.8%
[28]
  viability, T/C: 30%
[29]
  viability, T/C: 26.7%
[30]
  viability, T/C: 12.6%
[31]
  viability, T/C: 20.2%
[32]
  viability, T/C: 21.7%
[33]
  viability, T/C: 20.7%
[34]
  viability, T/C: 22.6%
[35]
  viability, T/C: 20.7%
[36]
  viability, T/C: 10.7%

## CC(Cn1ccc(-c2ccc(C#N)c(Cl)c2)n1)NC(=O)c1cc(C(C)O)[nH]n1 (stereo not drawn) + CC(Nc1ccc2c(c1)OCCn1cc(N3C(=O)OCC3C(F)F)nc1-2)C(N)=O
Second compound 0.00316 µM
  IC50: > 10000 nM
Second compound 0.01 µM
  IC50: > 10000 nM
Second compound 0.0316 µM
  IC50: 4210 nM
Second compound 0.1 µM
  IC50: < 31.6 nM
Second compound 0.316 µM
  IC50: < 31.6 nM
Second compound 1 µM
  IC50: < 31.6 nM
[1]
  viability, T/C: 74.5%
[2]
  viability, T/C: 85%
[3]
  viability, T/C: 92%
[4]
  viability, T/C: 93.9%
[5]
  viability, T/C: 88.5%
[6]
  viability, T/C: 54.3%
[7]
  viability, T/C: 75.1%
[8]
  viability, T/C: 80.9%
[9]
  viability, T/C: 78.6%
[10]
  viability, T/C: 80.5%
[11]
  viability, T/C: 83.4%
[12]
  viability, T/C: 57.7%
[13]
  viability, T/C: 50.2%
[14]
  viability, T/C: 57.4%
[15]
  viability, T/C: 54.4%
[16]
  viability, T/C: 53.7%
[17]
  viability, T/C: 59.2%
[18]
  viability, T/C: 35.1%
[19]
  viability, T/C: 41.1%
[20]
  viability, T/C: 36.2%
[21]
  viability, T/C: 38.5%
[22]
  viability, T/C: 39.8%
[23]
  viability, T/C: 39%
[24]
  viability, T/C: 27.3%
[25]
  viability, T/C: 26.7%
[26]
  viability, T/C: 26.5%
[27]
  viability, T/C: 25.8%
[28]
  viability, T/C: 27%
[29]
  viability, T/C: 25.8%
[30]
  viability, T/C: 19.4%
[31]
  viability, T/C: 19.6%
[32]
  viability, T/C: 20.6%
[33]
  viability, T/C: 19.7%
[34]
  viability, T/C: 20.8%
[35]
  viability, T/C: 19.1%
[36]
  viability, T/C: 14.3%

## CC1(C)CCC(Nc2ncc(C(F)(F)F)c(-c3c[nH]c4c(P(C)(C)=O)c(C#N)ccc34)n2)CN1 (stereo not drawn) + CC(Nc1ccc2c(c1)OCCn1cc(N3C(=O)OCC3C(F)F)nc1-2)C(N)=O
Second compound 0.00316 µM
  IC50: 5040 nM
Second compound 0.01 µM
  IC50: 4480 nM
Second compound 0.0316 µM
  IC50: 1660 nM
Second compound 0.1 µM
  IC50: < 31.6 nM
Second compound 0.316 µM
  IC50: < 31.6 nM
Second compound 1 µM
  IC50: < 31.6 nM
[1]
  viability, T/C: 68%
[2]
  viability, T/C: 70.8%
[3]
  viability, T/C: 74.5%
[4]
  viability, T/C: 72.6%
[5]
  viability, T/C: 81.4%
[6]
  viability, T/C: 15.6%
[7]
  viability, T/C: 60.8%
[8]
  viability, T/C: 65.4%
[9]
  viability, T/C: 65.8%
[10]
  viability, T/C: 73.6%
[11]
  viability, T/C: 66.9%
[12]
  viability, T/C: 12%
[13]
  viability, T/C: 44.7%
[14]
  viability, T/C: 49.7%
[15]
  viability, T/C: 54.6%
[16]
  viability, T/C: 57.4%
[17]
  viability, T/C: 47.4%
[18]
  viability, T/C: 5.82%
[19]
  viability, T/C: 34.1%
[20]
  viability, T/C: 37%
[21]
  viability, T/C: 39.9%
[22]
  viability, T/C: 40.4%
[23]
  viability, T/C: 33.3%
[24]
  viability, T/C: 2.6%
[25]
  viability, T/C: 27.7%
[26]
  viability, T/C: 26.8%
[27]
  viability, T/C: 30.2%
[28]
  viability, T/C: 29.4%
[29]
  viability, T/C: 24.4%
[30]
  viability, T/C: 1.37%
[31]
  viability, T/C: 21.3%
[32]
  viability, T/C: 22.5%
[33]
  viability, T/C: 23.6%
[34]
  viability, T/C: 22.9%
[35]
  viability, T/C: 16.8%
[36]
  viability, T/C: 1.29%
